Assay: xn = mol fraction of the nth substance listed
Settings: Fluid (supercritical or subcritical phases), Vibrating tube method

c1ccc2ccccc2c1 [naphthalene] + O=C=O
Settings | mass density [kg/m3]
318.11 K, 16084 kPa, x1 = 0.0093 | 785.19
318.11 K, 16667 kPa, x1 = 0.0065 | 790.99
318.11 K, 16960 kPa, x1 = 0.0093 | 796.88
318.11 K, 17000 kPa, x1 = 0.0049 | 787.78
318.11 K, 17635 kPa, x1 = 0.0065 | 803.78
318.11 K, 17984 kPa, x1 = 0.0093 | 809.07
318.11 K, 17995 kPa, x1 = 0.0049 | 800.44
318.11 K, 18460 kPa, x1 = 0.0065 | 812.58
318.11 K, 18977 kPa, x1 = 0.0049 | 811.61
318.11 K, 18989 kPa, x1 = 0.0093 | 819.91
318.11 K, 19176 kPa, x1 = 0.0065 | 820.58
318.11 K, 19789 kPa, x1 = 0.0093 | 827.92
318.11 K, 19904 kPa, x1 = 0.0065 | 827.96
318.11 K, 20045 kPa, x1 = 0.0049 | 822.71
318.11 K, 20953 kPa, x1 = 0.0093 | 838.54
318.11 K, 20963 kPa, x1 = 0.0049 | 831.61
318.11 K, 21000 kPa, x1 = 0.0065 | 838.23
318.11 K, 21926 kPa, x1 = 0.0065 | 846.14
318.11 K, 22004 kPa, x1 = 0.0049 | 840.84
318.11 K, 22031 kPa, x1 = 0.0093 | 847.64
318.11 K, 22694 kPa, x1 = 0.0093 | 852.96
318.11 K, 22962 kPa, x1 = 0.0049 | 848.85
318.11 K, 22968 kPa, x1 = 0.0065 | 854.56
318.11 K, 23517 kPa, x1 = 0.0093 | 859.24
318.11 K, 23867 kPa, x1 = 0.0065 | 861.51
318.11 K, 24017 kPa, x1 = 0.0049 | 857.07
318.11 K, 24931 kPa, x1 = 0.0093 | 869.34
318.11 K, 24993 kPa, x1 = 0.0065 | 869.51
318.13 K, 9447 kPa, x1 = 0.0038 | 467.84
318.13 K, 9511 kPa, x1 = 0.0038 | 479.86
318.13 K, 9624 kPa, x1 = 0.0038 | 500.05
318.13 K, 9723 kPa, x1 = 0.0038 | 516.4
318.13 K, 9815 kPa, x1 = 0.0038 | 530.29
318.13 K, 10026 kPa, x1 = 0.0038 | 558.2
318.13 K, 11028 kPa, x1 = 0.0038 | 638.56
318.13 K, 12034 kPa, x1 = 0.0038 | 682.9
318.13 K, 13013 kPa, x1 = 0.0038 | 712.68
318.13 K, 14016 kPa, x1 = 0.0038 | 736.26
318.13 K, 15020 kPa, x1 = 0.0038 | 755.47
318.13 K, 15435 kPa, x1 = 0.0214 | 798.75
318.13 K, 15510 kPa, x1 = 0.0214 | 799.63
318.13 K, 15611 kPa, x1 = 0.0214 | 800.92
318.13 K, 15832 kPa, x1 = 0.0214 | 803.59
318.13 K, 16002 kPa, x1 = 0.0038 | 771.53
318.13 K, 16016 kPa, x1 = 0.0214 | 805.76
318.13 K, 16531 kPa, x1 = 0.0214 | 811.8
318.13 K, 16555 kPa, x1 = 0.0204 | 810.95
318.13 K, 17029 kPa, x1 = 0.0214 | 817.29
318.13 K, 17033 kPa, x1 = 0.0038 | 786.19
318.13 K, 17049 kPa, x1 = 0.0204 | 816.49
318.13 K, 17588 kPa, x1 = 0.0204 | 822.21
318.13 K, 18000 kPa, x1 = 0.0214 | 827.3
318.13 K, 18021 kPa, x1 = 0.0038 | 798.72
318.13 K, 18067 kPa, x1 = 0.0204 | 827.01
318.13 K, 18584 kPa, x1 = 0.0204 | 832.05
318.13 K, 19038 kPa, x1 = 0.0038 | 810.39
318.13 K, 19046 kPa, x1 = 0.0214 | 837.22
318.13 K, 19123 kPa, x1 = 0.0204 | 837.04
318.13 K, 19537 kPa, x1 = 0.0204 | 840.73
318.13 K, 20002 kPa, x1 = 0.0038 | 820.43
318.13 K, 20016 kPa, x1 = 0.0214 | 845.63
318.13 K, 20055 kPa, x1 = 0.0204 | 845.16
318.13 K, 20564 kPa, x1 = 0.0204 | 849.36
318.13 K, 21012 kPa, x1 = 0.0214 | 853.76
318.13 K, 21027 kPa, x1 = 0.0038 | 830.26
318.13 K, 21058 kPa, x1 = 0.0204 | 853.31
318.13 K, 21568 kPa, x1 = 0.0204 | 857.24
318.13 K, 22015 kPa, x1 = 0.0038 | 839.08
318.13 K, 22015 kPa, x1 = 0.0214 | 861.35
318.13 K, 22022 kPa, x1 = 0.0204 | 860.61
318.13 K, 22506 kPa, x1 = 0.0204 | 864.13
318.13 K, 23014 kPa, x1 = 0.0038 | 847.4
318.13 K, 24022 kPa, x1 = 0.0038 | 855.31
318.13 K, 25018 kPa, x1 = 0.0038 | 862.63
318.14 K, 19647 kPa, x1 = 0.0237 | 845.05
318.14 K, 19720 kPa, x1 = 0.0237 | 845.71
318.14 K, 19769 kPa, x1 = 0.0237 | 846.15
318.14 K, 19815 kPa, x1 = 0.0237 | 846.6
318.14 K, 19868 kPa, x1 = 0.0237 | 847.1
318.14 K, 19940 kPa, x1 = 0.0237 | 847.81
318.14 K, 20042 kPa, x1 = 0.0237 | 848.76
318.14 K, 20202 kPa, x1 = 0.0237 | 850.16
318.14 K, 20409 kPa, x1 = 0.0237 | 851.93
318.14 K, 20762 kPa, x1 = 0.0237 | 854.79
318.14 K, 21268 kPa, x1 = 0.0237 | 858.75
318.14 K, 21759 kPa, x1 = 0.0237 | 862.5
318.14 K, 22256 kPa, x1 = 0.0237 | 866.12
318.14 K, 22769 kPa, x1 = 0.0237 | 869.73
318.14 K, 23308 kPa, x1 = 0.0237 | 873.42
318.14 K, 23561 kPa, x1 = 0.0237 | 875.25
323.03 K, 14061 kPa, x1 = 0.0198 | 735.87
323.03 K, 14281 kPa, x1 = 0.0198 | 740.33
323.03 K, 14482 kPa, x1 = 0.0198 | 744.21
323.03 K, 15014 kPa, x1 = 0.0198 | 753.86
323.03 K, 16032 kPa, x1 = 0.0198 | 770.24
323.03 K, 17031 kPa, x1 = 0.0198 | 784.26
323.03 K, 18075 kPa, x1 = 0.0198 | 797.2
323.03 K, 19028 kPa, x1 = 0.0198 | 807.85
323.03 K, 20080 kPa, x1 = 0.0198 | 818.58
323.03 K, 21050 kPa, x1 = 0.0198 | 827.65
323.03 K, 22246 kPa, x1 = 0.0198 | 838
323.03 K, 24029 kPa, x1 = 0.0198 | 851.96
323.03 K, 24780 kPa, x1 = 0.0198 | 857.36
323.06 K, 16579 kPa, x1 = 0.0276 | 788.12
323.06 K, 16788 kPa, x1 = 0.0276 | 790.83
323.06 K, 17004 kPa, x1 = 0.0276 | 793.51
323.06 K, 17203 kPa, x1 = 0.0276 | 795.99
323.06 K, 17382 kPa, x1 = 0.0276 | 798.16
323.06 K, 17590 kPa, x1 = 0.0276 | 800.59
323.06 K, 17798 kPa, x1 = 0.0276 | 803
323.06 K, 18018 kPa, x1 = 0.0276 | 805.49
323.06 K, 18224 kPa, x1 = 0.0276 | 807.76
323.06 K, 18490 kPa, x1 = 0.0276 | 810.6
323.06 K, 18694 kPa, x1 = 0.0276 | 812.78
323.06 K, 19009 kPa, x1 = 0.0276 | 816
323.06 K, 19476 kPa, x1 = 0.0276 | 820.59
323.06 K, 19995 kPa, x1 = 0.0276 | 825.42
323.06 K, 21006 kPa, x1 = 0.0276 | 834.34
323.06 K, 22002 kPa, x1 = 0.0276 | 842.55
323.06 K, 22987 kPa, x1 = 0.0276 | 850.05
323.06 K, 24002 kPa, x1 = 0.0276 | 857.32
323.06 K, 24701 kPa, x1 = 0.0276 | 862.06
323.07 K, 10356 kPa, x1 = 0.0049 | 477.23
323.07 K, 10584 kPa, x1 = 0.0049 | 504.85
323.07 K, 11014 kPa, x1 = 0.0049 | 548.62
323.07 K, 11189 kPa, x1 = 0.0093 | 594.87
323.07 K, 11528 kPa, x1 = 0.0093 | 616.57
323.07 K, 12026 kPa, x1 = 0.0093 | 642.38
323.07 K, 12054 kPa, x1 = 0.0049 | 619.66
323.07 K, 12157 kPa, x1 = 0.0144 | 663.68
323.07 K, 12308 kPa, x1 = 0.0144 | 669.44
323.07 K, 12400 kPa, x1 = 0.0144 | 672.76
323.07 K, 12573 kPa, x1 = 0.0144 | 678.74
323.07 K, 12986 kPa, x1 = 0.0144 | 691.87
323.07 K, 12997 kPa, x1 = 0.0049 | 660.38
323.07 K, 13031 kPa, x1 = 0.0093 | 680.85
323.07 K, 13495 kPa, x1 = 0.0144 | 706.09
323.07 K, 14001 kPa, x1 = 0.0093 | 708.22
323.07 K, 14001 kPa, x1 = 0.0144 | 718.59
323.07 K, 14013 kPa, x1 = 0.0049 | 692.38
323.07 K, 14975 kPa, x1 = 0.0093 | 730.03
323.07 K, 15034 kPa, x1 = 0.0049 | 717.29
323.07 K, 15051 kPa, x1 = 0.0144 | 740.61
323.07 K, 15260 kPa, x1 = 0.0235 | 764.21
323.07 K, 15541 kPa, x1 = 0.0235 | 768.75
323.07 K, 15987 kPa, x1 = 0.0049 | 736.48
323.07 K, 15999 kPa, x1 = 0.0144 | 757.24
323.07 K, 16027 kPa, x1 = 0.0235 | 776.04
323.07 K, 16061 kPa, x1 = 0.0093 | 750.23
323.07 K, 16993 kPa, x1 = 0.0093 | 765.16
323.07 K, 17000 kPa, x1 = 0.0144 | 772.5
323.07 K, 17006 kPa, x1 = 0.0049 | 753.98
323.07 K, 17013 kPa, x1 = 0.0235 | 790.56
323.07 K, 18007 kPa, x1 = 0.0235 | 801.9
323.07 K, 18016 kPa, x1 = 0.0049 | 769.15
323.07 K, 18016 kPa, x1 = 0.0144 | 786.14
323.07 K, 18045 kPa, x1 = 0.0093 | 779.85
323.07 K, 18986 kPa, x1 = 0.0049 | 782.09
323.07 K, 18996 kPa, x1 = 0.0144 | 797.91
323.07 K, 19008 kPa, x1 = 0.0235 | 812.85
323.07 K, 19015 kPa, x1 = 0.0093 | 791.95
323.07 K, 19996 kPa, x1 = 0.0093 | 803.09
323.07 K, 20004 kPa, x1 = 0.0049 | 794.32
323.07 K, 20013 kPa, x1 = 0.0144 | 809.02
323.07 K, 20026 kPa, x1 = 0.0235 | 822.87
323.07 K, 20987 kPa, x1 = 0.0049 | 805.12
323.07 K, 20996 kPa, x1 = 0.0235 | 831.78
323.07 K, 21016 kPa, x1 = 0.0093 | 813.7
323.07 K, 21017 kPa, x1 = 0.0144 | 819.02

Source: the NIST ThermoML archive (doi:10.1016/j.fluid.2005.06.010)
